Data from patent publication US10995068B2, “Synthetic sphingolipid-like molecules, drugs, methods of their synthesis and methods of treatment” (The Regents of the University of California, priority 2015, dated 2021).

What was measured:
[1] = system: K-RasG12D expressing cells; experiment: Macropinosome fusion with lysosomes; format: cell-based; settings: dextran
Text: In cells with activated Ras, macropinocytosis might also confer resistance to nutrient transporter down-regulation. However, PI(3,5)P2 is also required for macropinosome degradation. […] Macropinosomes that fail to fuse with lysosomes would not be able to supply nutrients, such as amino acids. Thus, by disrupting PIKfyve localization, sphingolipid-like compounds limit access to lysosome-derived nutrients at the same time it down-regulates transporters for amino acids and glucose.
(§1) Light Microscopy: Brightfield and epifluorescence microscopy were conducted using a Nikon TE2000-S fluorescence microscope; confocal microscopy was performed on a Zeiss LSM780 confocal microscope or Nikon Eclipse Ti spinning disk confocal microscope. […] Co-localization was determined using JACoP plugin in ImageJ software. Macropinocytosis was measured after 16 h incubation in serum-free DMEM. p53−/−; LSL-K-RasG12D MEFs before (LSL) or after (KRasG12D) introduction of Cre were serum starved for 16 h and then treated with macropinocytosis inhibitor 5-(N-ethyl-N-isopropyl) amiloride (EIPA, 75 μM) for 1 h or SH-BC-893 for 6 h. Oregon Green dextran (Life Technologies, cat #D7173) (1 mg/mL) and Lysotracker Red (Life Technologies, cat #L-7525) (1:2,000 dilution) were added for 30 min and live cells were evaluated on the spinning disc confocal microscope. […]

[2] = system: fusion of LC3-positive autophagosomes with LAMP1-positive lysosomes; experiment: Autophagosome-lysosome fusion in chloroquine-treated cells; format: cell-based
Method: It is known in the art that cells adapt to nutrient stress by increasing autophagic flux. However, autophagosome-lysosome fusion reactions depend upon […] release via TRPML1 channels that are activated by PI(3,5)P2. […] Chloroquine (CQ) is molecule that stabilizes the transient autophagosomes. Cells were treated with CG to stabilize autophagolysosomes and subsequently treated with FTY720, SH-BC-893, or YM201636. […] Phosphatidylinositol 5-Phosphate (PI(5)P) is essential for autophagosome biogenesis upon glucose depletion. PI(5)P is produced by dephosphorylating PI(3,5)P2, and thus PI(5)P might also be mis-localized in SH-BC-893-treated cells, and thus also contributing to the disruption of autophagosome formation. […] Thus, SH-BC-893 inhibited both autophagosome formation and degradation. As a control, Vac14 over-expression limited vacuolation (FIGS. 55F, 61F, and 62B) and rescued autophagic flux in SH-BC-893-treated cells (FIGS. 61A, 61B, 61D and 61E).
as §1

[3] = system: subcutaneous SW620 xenograft tumors; experiment: SW620 xenograft study in nude mice; format: in vivo; settings: 20 mg/kg daily by intraperitoneal injection
Method: In even another exemplary study, anti-neoplasm potency of the constrained pyrrolidine sphingolipid-like compounds in xenograft tumor animal studies. Nude mice bearing subcutaneous SW620 xenograft tumors were treated daily with 10 mg/kg FTY720 or 20 mg/kg of compounds 5 or 15 by intraperitoneal injection. […] Furthermore, these compounds retain many of the beneficial abilities of FTY720, such as, for example water solubility, oral bioavailability, and anti-tumor activity but no longer trigger bradycardia. Thus, these compounds are ideal for medicaments and treatments for neoplasms.
SW620 and SW480 xenograft studies: For SW620 xenograft studies, two and one half million luciferase-expressing SW620 colon cancer cells suspended in PBS with 2% FCS are injected subcutaneously in the flank of 7 week old male nude mice (Charles Rivers Labs, Crl:NU(NCr)-Foxn1nu). When tumors reached 100 mm^3 in volume, mice are assigned to groups with matched average tumor volumes and animal weights. Four groups containing 7 mice are treated intraperitoneally with either vehicle (0.9% saline), 10 mg/kg FTY720, or 20 mg/kg compound 5 or compound 15. Tumor length and width are measured with calipers at 7 and 11 days of treatment. Tumor volume is calculated using the formula volume (mm^3)=length [mm]×(width [mm])^2×0.52. The average fold change in the volume of each tumor over time is shown.

[4] = system: DU145 prostate cancer cells; experiment: Cell Titer Glo proliferation assay in DU145; format: cell-based, human; settings: 72 h, Mean ± SEM, n ≥ 3, read-out: IC50 values in prostate cancer cell lines, DU145
Method: (§2) Previously presented compounds 1-4 (FIG. 23), compounds 5-8 (FIG. 28), and control compound FTY720 (FIG. 2) were used to treat the well-established PC3 and DU145 prostate cancer lines (FIG. 29 and Table 1). A Cell Titer Glo assay was performed to measure proliferation of the cancer lines.
(§3) Cell culture studies: Sup-B15 cells are maintained at 2-3 million/mL in RPMI 1640 (Mediatech) supplemented with 10% fetal calf serum (FCS, Sigma-Aldrich), 10 mM Hepes (Mediatech), 55 μM β-mercaptoethanol (Sigma-Aldrich), 2 mM L-glutamine (Mediatech), and antibiotics. All adherent cells are maintained at 70-80% confluence. Cell are cultured in the following media: PC3 & A549, Ham's F12K (Corning Cell Gro) supplemented with 10% FCS and antibiotics; DU145 cells, MEM (Corning Cell Gro) supplemented with 10% FCS, 1 mM sodium pyruvate (Mediatech), and antibiotics; SW620 & MDA-MB-231, DMEM (Corning Cell Gro) with 10% FCS, 1 mM sodium pyruvate (Mediatech), and antibiotics; Panc-1 cells, DMEM (Corning Cell Gro) supplemented with 10% FCS and antibiotics. All of the above cell lines are available from the ATCC.
(§4) Viability assays: Cell Titer Glo assays (Cell Titer Glo Luminescent Cell Viability Assay kit, cat #G7571, Promega Corporation) are performed in clear bottom 96-well black cell culture plates (cat #655090, Greiner Bio-One, NC, USA). After plating at 1,000 cells/well in volume of 100 μl, cells are left undisturbed for at least 24 h before drug addition. After 72 h, cells are prepared for analysis by adding 10 μl of 0.1% Triton-X100 in PBS with shaking for 1 min at room temperature (RT). Cell Titer-Glo cell lysis reagent (20 μl) is then added followed by 1 min of shaking and a 10 min incubation in the dark at RT. Luminescence is detected using an IVIS imaging system (IVIS Lumina II, Perkin Elmer, USA). […] IC50s are determined using GraphPad Prism (GraphPad Software, Inc, La Jolla, Calif.). SupB-15 viability was determined by flow cytometry. Cell Titer Glo assays were performed with the other cell lines.

[5] = system: PC3 prostate cancer cells; experiment: Cell Titer Glo proliferation assay in PC3; format: cell-based, human; settings: Cell Titer Glo, 72 h; Mean ± SEM, n ≥ 3; read-out: IC50 values in prostate cancer cell lines, PC3
Method: as §2, §3, §4

| SMILES | macropinosome fusion with lysosomes [1] | fusion of LC3-positive autophagosomes with LAMP1-positive lysosomes [2] | tumor growth of SW620 xenografts [3] | IC50 [4] [µM] | IC50 [5] [µM] |
| --- | --- | --- | --- | --- | --- |
| Nc1ccc(C(=O)Nc2cccc(-c3nc(N4CCOCC4)c4oc5ncccc5c4n3)c2)cn1 [YM201636, reference compound] | dramatically reduced macropinosome fusion with lysosomes | reduced fusion | – | – | – |
| CCCCCCCCc1ccc([C@H]2CCN[C@@H]2COC)cc1.Cl [Compound 15] | – | – | inhibited tumor growth | 5.9 ± 0.3 | 6.3 ± 0.3 |
